{"source": "patent US20240066090A1", "about": "“COMPOSITION FOR PREVENTING, AMELIORATING, OR TREATING METABOLIC SYNDROMES INCLUDING OBESITY, DIABETES, HYPERLIPIDEMIA, AND FATTY LIVER” (NUTRACORE CO., LTD., priority 2019, published 2024)", "key": {"HFD mice [1]": {"system": "HFD mice", "assay": "Periovarian and abdominal wall fat pad thickness, adipocyte size and accumulated fat weight in HFD-supplied mice", "type": "in vivo, ICR mice", "conditions": "test materials 200 mg/kg oral, Metformin 250 mg/kg, mean±SD for 8 mice"}, "HFD mice [2]": {"system": "HFD mice", "assay": "Body weight and total body/abdominal fat density (DEXA) in HFD-supplied mice", "type": "in vivo, ICR mice", "conditions": "test materials 200 mg/kg, metformin 250 mg/kg", "protocol": "Specifically, after acclimating total 200 6-week-old female ICR mice to a laboratory environment for 7 days, they were adapted to HFD (45% Kcal high fat diet) 1 week before the start of administration of the experimental substance, and then the experimental substance was administered, and in the normal control group, a general NFD (Normal pellet diet) was supplied by the same method.\nAs the experimental substance, the LB (lemon balm extract) and CS (corn silk extract) alone and 9 kinds of LB:CS complexes (LB:CS=1:1, 1:2, 1:4, 1:6, 1:8, 2:1, 4:1, 6:1 and 8:1 (g/g)) as described in Table 1 above were used. The administration dose of the experimental substance was equally set to 200 mg/kg in total based on the medicinal efficacy investigation research of the present inventors. The experimental substance was dissolved in sterile distilled water and orally administered.\nIn addition, the total body fat and abdominal fat density were measured using DEXA (live dual-energy x-ray absorptiometry) and the result was shown in FIG. 4."}}}
{"smiles": "CN(C)C(=N)N=C(N)N", "note": "[Metformin]", "values": [{"measurement": "Abdominal wall fat pads Adipocyte diameters", "setting": "HFD mice [1]", "value": "64.49 ± 13.74^ab μm"}, {"measurement": "Abdominal wall fat pads Thickness", "setting": "HFD mice [1]", "value": "2.99 ± 0.49^fg mm"}, {"measurement": "Periovarian fat pads Adipocyte diameters", "setting": "HFD mice [1]", "value": "48.12 ± 6.36^fg μm"}, {"measurement": "Periovarian fat pads Thickness", "setting": "HFD mice [1]", "value": "2.83 ± 0.43^ab mm"}, {"measurement": "Time after the start of administration at which a significant (p<0.01 or p<0.05) decrease of body weight and fat density compared to the HFD control group began", "setting": "HFD mice [2]", "value": 21, "unit": "days"}, {"measurement": "Body weight and fat density during the 84-day administration period, compared to the HFD control group (groups listed in order of effect)", "setting": "HFD mice [2]; 84 days", "value": "significant (p<0.01) decrease"}]}
